PubChem BioAssay (NCI)
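Here, GI50 denotes the concentration required for 50% inhibition of growth. At the TGI there is no net growth.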

How the values were obtained:
Experiment in all cases: inhibition of tumour cell growth, NCI panel, 384-well format
HCT-15 colon = test system: HCT-15 colon
A549 NSCLC = test system: A549 NSCLC
NCI-H322M lung = test system: NCI-H322M lung
RPMI-8226 leukemia = test system: RPMI-8226 leukemia
OVCAR-4 ovarian = test system: OVCAR-4 ovarian
SW-620 colon = test system: SW-620 colon
UACC-62 melanoma = test system: UACC-62 melanoma
NCI-H23 lung = test system: NCI-H23 lung
U251 glioblastoma = test system: U251 glioblastoma
COLO 205 colon = test system: COLO 205 colon
SR leukemia = test system: SR leukemia
IGROV1 ovarian = test system: IGROV1 ovarian
MCF7 breast = test system: MCF7 breast
DU-145 prostate = test system: DU-145 prostate
CAKI-1 renal = test system: CAKI-1 renal
SK-OV-3 ovarian = test system: SK-OV-3 ovarian
SK-MEL-5 melanoma = test system: SK-MEL-5 melanoma
NCI-H522 lung = test system: NCI-H522 lung
BT-549 breast = test system: BT-549 breast
UO-31 renal = test system: UO-31 renal
M14 melanoma = test system: M14 melanoma
SF-268 CNS = test system: SF-268 CNS
TK-10 renal = test system: TK-10 renal
SN12C renal = test system: SN12C renal
HCT-116 colon = test system: HCT-116 colon
A498 renal = test system: A498 renal
NCI-H460 NSCLC = test system: NCI-H460 NSCLC
ACHN renal = test system: ACHN renal
NCI/ADR-RES ovarian = test system: NCI/ADR-RES ovarian
MDA-MB-231 breast = test system: MDA-MB-231 breast
T-47D breast = test system: T-47D breast
OVCAR-3 ovarian = test system: OVCAR-3 ovarian
NCI-H226 lung = test system: NCI-H226 lung
SNB-19 CNS = test system: SNB-19 CNS
HOP-92 NSCLC = test system: HOP-92 NSCLC
MDA-MB-468 breast = test system: MDA-MB-468 breast
SK-MEL-2 melanoma = test system: SK-MEL-2 melanoma
MDA-MB-435 melanoma = test system: MDA-MB-435 melanoma
OVCAR-8 ovarian = test system: OVCAR-8 ovarian
RXF 393 renal = test system: RXF 393 renal
OVCAR-5 ovarian = test system: OVCAR-5 ovarian
HT29 colon = test system: HT29 colon
786-0 renal = test system: 786-0 renal
LOX IMVI melanoma = test system: LOX IMVI melanoma
SF-539 CNS = test system: SF-539 CNS
HCC-2998 colon = test system: HCC-2998 colon
HL-60(TB) leukemia = test system: HL-60(TB) leukemia
SF-295 CNS = test system: SF-295 CNS
KM12 colon = test system: KM12 colon
UACC-257 melanoma = test system: UACC-257 melanoma
MALME-3M melanoma = test system: MALME-3M melanoma
HOP-62 NSCLC = test system: HOP-62 NSCLC
PC-3 prostate = test system: PC-3 prostate
MOLT-4 leukemia = test system: MOLT-4 leukemia
CCRF-CEM leukemia = test system: CCRF-CEM leukemia
SK-MEL-28 melanoma = test system: SK-MEL-28 melanoma
K-562 leukemia = test system: K-562 leukemia

## C#Cc1c(F)ccc2cc(O)cc(-c3ncc4c(N5CC6CCC(C5)N6)nc(OC[C@@]56CCCN5C[C@H](F)C6)nc4c3F)c12
HCT-15 colon
  GI50: 14.6 µM
  TGI: 27.8 µM
A549 NSCLC
  GI50: 5.54 µM
  TGI: 18.5 µM
NCI-H322M lung
  GI50: 6.12 µM
  TGI: 19.3 µM
RPMI-8226 leukemia
  GI50: 0.0774 µM
  TGI: 0.845 µM
OVCAR-4 ovarian
  GI50: 7.07 µM
  TGI: 19.7 µM
SW-620 colon
  GI50: 0.375 µM
  TGI: 1.61 µM
UACC-62 melanoma
  GI50: 1.78 µM
  TGI: 3.18 µM
NCI-H23 lung
  GI50: 0.568 µM
  TGI: 3.51 µM
U251 glioblastoma
  GI50: 1.83 µM
  TGI: 3.36 µM
COLO 205 colon
  GI50: 2.02 µM
  TGI: 3.94 µM
SR leukemia
  GI50: 1.06 µM
  TGI: 2.25 µM
IGROV1 ovarian
  GI50: 12.4 µM
  TGI: 24.9 µM
MCF7 breast
  GI50: 2.36 µM
  TGI: 5.28 µM
DU-145 prostate
  GI50: 13.7 µM
  TGI: 26.6 µM
CAKI-1 renal
  GI50: 10.9 µM
  TGI: 22.9 µM
SK-OV-3 ovarian
  GI50: 2.36 µM
  TGI: 5.59 µM
SK-MEL-5 melanoma
  GI50: 1.67 µM
  TGI: 3.66 µM
NCI-H522 lung
  GI50: 1.83 µM
  TGI: 3.63 µM
BT-549 breast
  GI50: 1.86 µM
  TGI: 3.47 µM
UO-31 renal
  GI50: 15.8 µM
  TGI: 29.3 µM
M14 melanoma
  GI50: 1.78 µM
  TGI: 3.27 µM
SF-268 CNS
  GI50: 1.99 µM
  TGI: 4.34 µM
TK-10 renal
  GI50: 17.3 µM
  TGI: 31.1 µM
SN12C renal
  GI50: 11.5 µM
  TGI: 23.7 µM
HCT-116 colon
  GI50: 1.37 µM
  TGI: 2.9 µM
A498 renal
  GI50: 10.5 µM
  TGI: 22.4 µM
NCI-H460 NSCLC
  GI50: 1.51 µM
  TGI: 5.97 µM
ACHN renal
  GI50: 16.1 µM
  TGI: 29.7 µM
NCI/ADR-RES ovarian
  GI50: 85.7 µM
  TGI: > 100 µM
MDA-MB-231 breast
  GI50: 1.94 µM
  TGI: 4 µM
T-47D breast
  GI50: 2.03 µM
  TGI: 5.32 µM
OVCAR-3 ovarian
  GI50: 4.45 µM
  TGI: 16.6 µM
NCI-H226 lung
  GI50: 10.7 µM
  TGI: 22.6 µM
SNB-19 CNS
  GI50: 10.8 µM
  TGI: 22.8 µM
HOP-92 NSCLC
  GI50: 2.03 µM
  TGI: 4.02 µM
MDA-MB-468 breast
  GI50: 2.08 µM
  TGI: 3.55 µM
SK-MEL-2 melanoma
  GI50: 1.85 µM
  TGI: 3.26 µM
MDA-MB-435 melanoma
  GI50: 1.93 µM
  TGI: 3.4 µM
OVCAR-8 ovarian
  GI50: 12.2 µM
  TGI: 24.7 µM
RXF 393 renal
  GI50: 2.41 µM
  TGI: 6.19 µM
OVCAR-5 ovarian
  GI50: 3.14 µM
  TGI: 10.5 µM
HT29 colon
  GI50: 2.02 µM
  TGI: 4.05 µM
786-0 renal
  GI50: 12.4 µM
  TGI: 24.9 µM
LOX IMVI melanoma
  GI50: 2.23 µM
  TGI: 3.7 µM
SF-539 CNS
  GI50: 1.92 µM
  TGI: 3.52 µM
HCC-2998 colon
  GI50: 0.303 µM
  TGI: 1.67 µM
HL-60(TB) leukemia
  GI50: 1.87 µM
  TGI: 3.28 µM
SF-295 CNS
  GI50: 17.7 µM
  TGI: 31.6 µM
KM12 colon
  GI50: 2.07 µM
  TGI: 5.31 µM
UACC-257 melanoma
  GI50: 1.77 µM
  TGI: 3.17 µM
MALME-3M melanoma
  GI50: 1.99 µM
  TGI: 3.43 µM
HOP-62 NSCLC
  GI50: 0.853 µM
  TGI: 10.2 µM
PC-3 prostate
  GI50: 9.06 µM
  TGI: 21 µM
MOLT-4 leukemia
  GI50: 1.9 µM
  TGI: 3.32 µM
CCRF-CEM leukemia
  GI50: 1.25 µM
  TGI: 2.51 µM
SK-MEL-28 melanoma
  GI50: 1.87 µM
  TGI: 3.29 µM
K-562 leukemia
  GI50: 3.58 µM
  TGI: 9.9 µM
